Results reported in ChEMBL document CHEMBL3085636, “Further optimization of plakortin pharmacophore: structurally simple 4-oxymethyl-1,2-dioxanes with promising antimalarial activity” (Eur J Med Chem, 2013).

Tests used:
[1] = test system: Plasmodium falciparum; assay: Antimalarial activity against chloroquine-resistant Plasmodium falciparum W2 after 72 hrs by parasite lactate dehydrogenase assay; assay type: functional, organism-based; conditions: W2, 72 h
[2] = test system: Plasmodium falciparum; assay: Antimalarial activity against chloroquine-sensitive Plasmodium falciparum D10 after 72 hrs by parasite lactate dehydrogenase assay; assay type: functional, organism-based; conditions: D10, 72 h

Structure (SMILES) | IC50 [1] | IC50 [2]
CCCC[C@@]1(C)C[C@H](COC)[C@](CCCC)(OC)OO1 | 0.7 µM | 0.9 µM
CCCCC1(CCCC)C[C@H](COC)[C@](C)(OC)OO1 | 1.7 µM | 
CCCC[C@]1(C)C[C@H](CO)[C@@](CCCC)(OC)OO1 | 11.2 µM | > 30 µM
CCCCC1(CCCC)C[C@H](COC)[C@](CCCC)(OC)OO1 | 0.7 µM | 
CCCCC1(CCCC)C[C@H](CO)[C@@](CCCC)(OC)OO1 | 1 µM | 2.4 µM
CCCC[C@@]1(OC)OOC(C)(C)C[C@@H]1COC | 2.8 µM | 8.6 µM
CCCC[C@]1(C)C[C@H](COC)[C@@](CCCC)(OC)OO1 | 2 µM | 4.3 µM
CCCC[C@]1(C)C[C@H](COC)[C@](CCCC)(OC)OO1 | 0.5 µM | 0.8 µM
CCCC[C@@]1(OC)OOC(C)(C)C[C@@H]1CO | 7.3 µM | 17.2 µM
CCCCC1(CCCC)C[C@H](COC)[C@@](CCCC)(OC)OO1 | 1 µM | 
CCCC[C@]1(OC)OOC(C)(C)C[C@@H]1COC | > 30 µM | > 30 µM
COC[C@H]1CC(C)(C)OO[C@@]1(C)OC | > 30 µM | > 30 µM
CCCC[C@@]1(C)C[C@H](CO)[C@](CCCC)(OC)OO1 | 2.3 µM | 6 µM
CCCCC1(CCCC)C[C@H](CO)[C@](CCCC)(OC)OO1 | 1.6 µM | 4 µM
CCCC[C@]1(C)C[C@H](CO)[C@](CCCC)(OC)OO1 | 1.9 µM | 5.4 µM
COC[C@H]1CC(C)(C)OO[C@]1(C)OC | > 30 µM | > 30 µM
CCCCC1(CCCC)C[C@H](COC)[C@@](C)(OC)OO1 | 1.5 µM | 
CCCC[C@@]1(C)C[C@H](COC)[C@@](CCCC)(OC)OO1 | 1.2 µM | 2.3 µM
